Where “and” joins values, the source holds several entries; their conditions need not be identical. Equal values may be shown once.

We go through twelve molecules from patent EP2016954A1, “Antibodies against 4-(methylnitrosamino)-1-(3-pyridyl)-1-butanone and metabolites thereof” (Muller, Claude P., priority 2007, dated 2009).

For assay [1], the system named is anti-[NNK-C2]-DT sera. Put plainly: Competition ELISA with mouse sera on coated [NNK-C2]-OVA. Format: binding, BALB/c mice. Particulars: for IC50: competitor inhibiting binding of serum antibodies to coated [NNK-C2]-OVA; for specific reactivity of mouse sera: competition ELISA. As for the experimental part:
Specific antibodies were monitored after each injection of [NNK-C2]-DT. […] NNK-specific antibodies were monitored by competition ELISA by adding increasing concentrations of NNK as competitors (0-256µM) (Figure 1) to measure their capacity to inhibit the binding of serum antibodies to coated [NNK-C2]-OVA.
(§1) In all competition experiments, optimal antigen coating conditions and serum dilutions were determined by direct ELISA. 384-well plates were coated with the minimal amount of antigen required for maximal signal. Sera or mAb supernatants were diluted to obtain 70% binding and a signal of 1.0 to 1.5 O.D. at 0% competition (highest signal). The competitors (NNK and its metabolites (NNAL, NNK-N-ox, NNAL-N-ox, keto acid (1-(3-pyridyl)-1-butanone-4-carboxylic acid), PBCA (1-(3-pyridyl)-1-butanol-4-carboxylic acid), PB (1-(3-pyridyl)-1-butanediol) and HPB (4-hydroxy-1-(3-pyridyl)-1-butanone)), from Toronto Research Chemicals Inc., Canada and Acros Organics, Geel, Belgium) were resuspended in 100% dimethylsulfoxide and stock solutions of […] were frozen at -80°C. Competitors were mixed 1:1 with sera or mAb supernatants to final concentrations of 0 to 512 µM for mAbs or 0 to 1024 µM for serum. Zero (highest signal) and 100% competition (background signal) were determined using no or NNK-C2 as competitor. The difference between these two values corresponds to the dynamic range of the assay. For each competitor concentration, the 50% of inhibitory concentration, IC50 was calculated. Experiments were independently repeated three times and data were analyzed used SigmaStat software. Net OD was calculated by subtraction of the relevant background as described in each figure.

The test system of assay [2] is P9D5 and P7H3. Put plainly: Competition ELISA, results stated jointly for both mAbs. Format: binding, mouse. The following applies: for IC50: range over P9D5 and P7H3; for binding of the antibodies: N-oxidation of the pyridyl ring, result in words. As for the experimental part: as §1
In assay [3] the test system is P9D5. The assay can be described thus: Competition ELISA with mAb P9D5 on immobilized [NNK-C2]-OVA. Format: binding, mouse. Particulars: for IC50: competitor inhibiting binding of P9D5 to [NNK-C2]-OVA; for IC50 compared with the one of NNK: P9D5, result in words; for inhibition of P9D5 binding: competition ELISA, result in words. How it is done:
as §1

In assay [4] the test system is P7H3. Put plainly: Competition ELISA with mAb P7H3. Format: binding, mouse. Particulars: for IC50: competitor inhibiting binding of P7H3; for inhibition of P7H3 binding: competition ELISA, result in words. As for the experimental part:
as §1

Assay [5] concerns NCI-H82 cells. The assay can be described thus: NNK-induced proliferation of NCI-H82 cells (ATP bioluminescence). Format: cell-based, human. The following applies: NNK 25 nM, 24h. As for the experimental part: NCI-H82 cells were obtained from European Collection of Cell Cultures and maintained in RPMI 1640 with 2 mM L-glutamine (Biowhittaker, Verviers, BE) with the above supplements ("NCI-H82 medium"). Every 2 or 3 days cell medium was renewed. Cells were subcultured once a week. All cultures were mycoplasma-free.
For proliferation experiments, NCI-H82 cells were seeded at a concentration of about 8 x 10^3 cells/well in 200 µl of NCI-H82 medium on collagen type I coated 96-well plates (Greiner Bio-one, Wemmel, BE) and incubated at 37°C and 10% CO2. Proliferation assays were performed at 10% CO2 since CO2 seems to act as a potent messenger molecule for SCLC cells, enhancing the susceptibility of this cancer cell to a host of autocrine and paracrine growth-stimulating signals. After 18h, medium was replaced by fresh NCI-H82 medium containing only 0.15% heat-inactivated fetal bovine serum ("low serum medium") 6h prior NNK treatment. Stock solutions of NNK were prepared in dimethyl sulfoxide. […] Cell proliferation was assessed 24h after treatment using the ViaLightTM HS kit according to the manufacturer's instructions (Cambrex Bioscience, Verviers, BE). Bioluminescence of ATP present in metabolically active cells, was measured on a GENios Plus fluorescence plate reader (Tecan, Mechelen, BE). […]

Consider `CN(CCCC(O)c1cccnc1)N=O` (centres unmarked) [NNAL, 4-(methylnitrosamino)-1-(3-pyridyl)-1-butanol], for which the IC50 in assay [1] is 80 µM; in assay [2], 29 to 93 µM; in assay [3], 20 µM.
For the molecule `CN(CCCC(=O)c1ccc[n+]([O-])c1)N=O` [NNK-N-Ox, 4-(methylnitrosamino)-1-(3-pyridyl-N-oxide)-1-butanone], in assay [1], the “specific reactivity of mouse sera” value is on record as “essentially no specific reactivity was detected”. Further, the “binding of the antibodies” value in assay [2] is reported as “totally obliterates binding”.
For the molecule `CN(CCCC(O)c1ccc[n+]([O-])c1)N=O` (centres unmarked) [NNAL-N-Ox, 4-(methylnitrosamino)-1-(3-pyridyl-N-oxide)-1-butanol], in assay [1], the “specific reactivity of mouse sera” value was “essentially no specific reactivity was detected”. Besides, the “binding of the antibodies” value in assay [2] is given as “totally obliterates binding”.
Turning to `CCOC(=O)c1cccnc1` [ENAT, ethylnicotinate], the IC50 is 49 to 80 µM in assay [2], 80 µM in assay [4] and 49 µM in assay [3].
As for `O=C(O)CCC(O)c1cccnc1` (centres unmarked) [PBCA, 1-(3-pyridyl)-1-butanol-4 carboxylic acid], the “inhibition of P7H3 binding” value in assay [4] is on record as “moderately inhibited”. In addition, in assay [3], the “IC50 compared with the one of NNK” value is “significant increase of the IC50” and the “inhibition of P9D5 binding” value was “moderate inhibition”.
As to `NCCN(CCCC(=O)c1cccnc1)N=O` [NNK-C2, 4-[2-amino-ethyl(nitrosamino)]-1-pyridine-3-yl-butane-1-one], the IC50 was 4.4 to 12 µM in assay [2] and 3.7 µM in assay [3].
Regarding `OCCCC(O)c1cccnc1` (centres unmarked) [PB, 1-(3-pyridyl)-1-butanediol], the IC50 is 230 µM in assay [1] and 72 µM in assay [3]. Also, the “inhibition of P7H3 binding” value in assay [4] is given as “moderately inhibited”.
As for `Cc1cccnc1` [3-picoline], the IC50 in assay [4] is 320 µM; in assay [3], 400 µM.
With `O=C(CCCO)c1cccnc1` [HPB, 4-hydroxy-1-(3-pyridyl)-1-butanone], the IC50 in assay [1] was found to be 80 µM; in assay [3] it was 50 µM. Further, the “inhibition of P7H3 binding” value in assay [4] is “moderately inhibited”.
For `O=C(O)CCC(=O)c1cccnc1` [keto acid, 1-(3-pyridyl)-1-butanone-4 carboxylic acid], the “inhibition of P7H3 binding” value in assay [4] was “moderately inhibited”. For the same molecule, in assay [3], the “IC50 compared with the one of NNK” value is “significant increase of the IC50” and the “inhibition of P9D5 binding” value is listed as “moderate inhibition”.
For the molecule `O=C(O)c1ccc[n+]([O-])c1` [NIA-N-Ox, nicotinic acid-N-oxide], the “binding of the antibodies” value in assay [2] is “totally obliterates binding”.
For the molecule `CN(CCCC(=O)c1cccnc1)N=O` [NNK, 4-(methylnitrosamino)-1-(3-pyridyl)-1-butanone], the IC50 in assay [1] was 26 µM; in assay [2] it was 80 to 160 µM; in assay [4] it was 160 µM; in assay [3], 63 µM and 80 µM. Further, in assay [5], the “increase of cell number in comparison to unstimulated control cells” value was in the range of 2 to 3 fold.
